Values joined by “and” are separate entries in the source; they are usually repeats but may differ in a detail not shown here. Equal entries are not always repeated.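 Assay format: 96-well plates, 48-hour exposure. GI50 marks 50% less growth. TGI is the concentration that stops growth completely.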
Legend:
Assay in all cases: NCI-60 cell line screen, 48 h
DU-145 prostate = system: DU-145 prostate
EKVX NSCLC = system: EKVX NSCLC
KM12 colon = system: KM12 colon
LOX IMVI melanoma = system: LOX IMVI melanoma
MALME-3M melanoma = system: MALME-3M melanoma
MDA-MB-435 = system: MDA-MB-435
SF-268 CNS = system: SF-268 CNS
SNB-75 CNS = system: SNB-75 CNS
SW-620 colon = system: SW-620 colon
TK-10 renal = system: TK-10 renal

Compound | GI50 (DU-145 prostate) | TGI (DU-145 prostate) | GI50 (EKVX NSCLC) | TGI (EKVX NSCLC) | GI50 (KM12 colon) | TGI (KM12 colon) | GI50 (LOX IMVI melanoma) | TGI (LOX IMVI melanoma) | GI50 (MALME-3M melanoma) | TGI (MALME-3M melanoma) | GI50 (MDA-MB-435) | TGI (MDA-MB-435) | GI50 (SF-268 CNS) | TGI (SF-268 CNS) | GI50 (SNB-75 CNS) | TGI (SNB-75 CNS) | GI50 (SW-620 colon) | TGI (SW-620 colon) | GI50 (TK-10 renal) | TGI (TK-10 renal)
O=c1oc2ccc(I)cc2c(=O)n1-c1ccc(I)cc1F | 0.684 µM | 17.9 µM | 1.15 µM | 8.21 µM | 2.2 µM | 5.23 µM | 0.532 µM | 4.66 µM | 0.36 µM | 2.54 µM | 0.586 µM | 5.6 µM | 0.511 µM | 7.64 µM | 0.32 µM | 2.57 µM | 0.821 µM | 13.1 µM | 1.42 µM | 11.8 µM
COc1ccc2c(c1)C(=O)/C(=C/c1cccc(OCC(=O)c3ccc([N+](=O)[O-])cc3)c1)CO2 | 2.73 µM | 7.14 µM | 7.68 µM | 21.9 µM | 1.56 µM | 3.26 µM | 1.47 µM | 2.88 µM | 2.91 µM | 10.9 µM | 2.32 µM | 7.11 µM | 2.7 µM | 7.74 µM | 1.83 µM | 8.09 µM | 1.45 µM | 2.96 µM | 2.97 µM | 7.49 µM
CN(CO)c1nc(N(C)CO)nc(N(C)CO)n1 | 29 µM | 64.8 µM and 76.5 µM | 41.8 µM | > 81.5 µM and 77.7 µM |  | 47.7 µM and 31.8 µM | 16.2 µM | 36.6 µM and 26.8 µM | 17.5 µM | 34.2 µM and 26.1 µM |  | 40.3 µM | 26.2 µM and 18.5 µM | 64.1 µM and 70.2 µM | 16.4 µM | 53.3 µM and 32 µM | 11.5 µM | 43.6 µM and 70.6 µM |  | 82.9 µM and 77.4 µM
C#Cc1cccc(Nc2ncnc3ccc(-c4cnc(N)nc4)cc23)c1 | 0.744 µM | 14.6 µM | 0.242 µM | 2.93 µM | 4.57 µM | 20.8 µM | 2.78 µM | 11.3 µM | 1.73 µM | 12.7 µM | 3.58 µM | 15.6 µM | 1.79 µM | 20.6 µM | 0.643 µM | 3.96 µM | 4.23 µM | 17.7 µM | 0.286 µM | 3.2 µM
COc1ccc(C(=O)/C=C/c2c(C(F)(F)F)nc3ccccn23)cc1OC | 1.3 µM |  | 3.39 µM | > 100 µM | 0.646 µM | 7.42 µM | 0.584 µM |  | 13.8 µM | > 100 µM | 1.15 µM | > 100 µM | 2.07 µM | > 24.7 µM | 2.01 µM | 6.77 µM | 0.527 µM | > 100 µM | 2.07 µM | > 20.6 µM
Cl.[O-]c1cccc2cccnc12.[O-]c1cccc2cccnc12.[O-]c1cccc2cccnc12.[O-]c1cccc2cccnc12.[Ti+4] | 10.5 µM | > 100 µM | 0.916 µM | > 27.4 µM | 2.28 µM | 8.04 µM | 1.69 µM | > 88.9 µM | 1.91 µM | > 40.2 µM | 11.6 µM | > 100 µM | 0.594 µM | > 100 µM | 9.55 µM | > 100 µM | 0.393 µM | > 100 µM | 53.7 µM | > 100 µM
Oc1ccccc1/C=N\Nc1ccccc1 | 15.8 µM | > 100 µM | 12.9 µM | > 100 µM | 2.25 µM | > 100 µM | 0.725 µM | 12.5 µM | 3.72 µM | 21.7 µM | 2.87 µM | > 100 µM | 18.6 µM | > 100 µM | 21.2 µM | > 100 µM | 2.94 µM | > 100 µM | 24.9 µM | > 100 µM
Cc1cc(C(=O)CC(Cl)=C(Cl)Cl)c(Cl)cc1Cl | 16 µM | 40.4 µM | 19 µM | 47.7 µM | 18.2 µM | 42.1 µM | 17.6 µM | 33.8 µM | 14.3 µM | 34.5 µM | 17.1 µM | 43.1 µM | 20.9 µM | 55.8 µM | 34.8 µM | > 100 µM | 21.7 µM | 52.3 µM | 15.9 µM | 32 µM
CN1CCN(C(=O)[C@@]2(C)CC[C@]3(C)CC[C@]4(C)C(=CC[C@@H]5[C@@]6(C)CC[C@H](OC(=O)c7cccnc7)C(C)(C)[C@@H]6CC[C@]54C)[C@@H]3C2)CC1 | 1.81 µM | 3.51 µM | 1.74 µM | 3.86 µM | 1.9 µM | 3.64 µM | 1.65 µM | 3.06 µM | 1.78 µM | 3.54 µM | 1.7 µM | 3.19 µM | 1.84 µM | 3.85 µM | 1.32 µM | 2.63 µM | 1.79 µM | 3.59 µM | 1.79 µM | 3.31 µM
O=C(C(=O)c1cccnc1)c1cccnc1 | > 100 µM | > 100 µM | > 100 µM | > 100 µM | > 100 µM | > 100 µM | > 100 µM | > 100 µM | > 100 µM | > 100 µM | > 100 µM | > 100 µM | > 100 µM | > 100 µM | > 100 µM | > 100 µM | > 100 µM | > 100 µM | > 100 µM | > 100 µM
CC(C)c1ccc(C(c2c(O)c3ccccc3oc2=O)c2c(O)c3ccccc3oc2=O)cc1 |  | > 81.8 µM |  | 55.2 µM |  | 40.4 µM |  | 33 µM |  | 38.4 µM |  | 39.3 µM |  | 66.6 µM |  | 75.8 µM |  | 34.2 µM |  | 68 µM
COC(=O)c1cc2c([nH]c3ccccc32)c(-c2nc3ccccc3cc2CO)n1 | > 100 µM | > 100 µM | > 100 µM | > 100 µM | > 100 µM | > 100 µM | > 100 µM | > 100 µM | > 100 µM | > 100 µM | > 100 µM | > 100 µM | > 100 µM | > 100 µM | 40.1 µM | > 100 µM | > 100 µM | > 100 µM | > 100 µM | > 100 µM
O=C(CCN1CCCC1)Nc1ccc2c(Nc3ccc(Br)cc3)c3ccccc3nc2c1 | 0.798 µM | 2.07 µM | 1.59 µM | 3.05 µM | 1.57 µM | 3.29 µM | 1 µM | 2.24 µM | 1.62 µM | 3.09 µM | 1.68 µM | 3.1 µM | 1.33 µM | 2.81 µM | 1.37 µM | 2.68 µM | 1.24 µM | 2.64 µM | 1.72 µM | 3.37 µM
CN(C)c1ccc(/C=N/n2c(CCCCc3n[nH]c(=S)n3/N=C/c3ccc(N(C)C)cc3)n[nH]c2=S)cc1 | > 100 µM | > 100 µM | > 100 µM | > 100 µM | > 100 µM | > 100 µM | > 100 µM | > 100 µM | > 100 µM | > 100 µM | > 100 µM | > 100 µM | > 100 µM | > 100 µM | 30.2 µM | > 100 µM | > 100 µM | > 100 µM | > 100 µM | > 100 µM
CN(CCCCCCCCNc1ccnc2ccccc12)Cc1ccc(-c2ccc(-c3ccc(C#N)cc3)s2)cc1 | 1.04 µM | 2.38 µM | 0.827 µM | 2.28 µM | 0.667 µM | 2.17 µM | 0.164 µM | 0.31 µM | 0.903 µM | 2.21 µM | 1.19 µM | 2.5 µM | 1.6 µM | 3.45 µM | 1.35 µM | 2.68 µM | 0.178 µM | 0.432 µM | 1.57 µM | 3.18 µM
COc1ccc(C2CC(c3ccc4ccccc4c3)=NN2c2nc(O)c(C3=c4cc(Cl)ccc4=NC3=O)s2)cc1 (centres undefined) | 0.0331 µM and < 0.005 µM | 0.147 µM and 0.2 µM | 0.0313 µM and < 0.005 µM |  | 0.0236 µM and < 0.005 µM |  | 0.0223 µM and < 0.005 µM |  | 0.0182 µM and < 0.005 µM | 0.0363 µM and < 0.005 µM | 0.0215 µM and < 0.005 µM | 0.0483 µM and < 0.005 µM | 0.0291 µM and < 0.005 µM |  | 0.0171 µM | 0.0408 µM | 0.0187 µM and < 0.005 µM | 0.0374 µM and < 0.005 µM | 0.0195 µM and < 0.005 µM | 
CC[C@H](C)[C@H](NC(=O)[C@H]1CCCCN1C)C(=O)N(C)[C@H](C[C@@H](OC(C)=O)c1nc(C(=O)NC23C4C5C2C2C3C4C52C(=O)OC)cs1)C(C)C (some centres undefined) | 0.00113 µM and 0.0025 µM | 0.031 µM | 0.027 µM and 0.011 µM | > 25 µM | 0.00309 µM and 0.0025 µM | > 25 µM | 0.00108 µM and 0.0025 µM | > 25 µM | 0.00288 µM and 0.0025 µM | > 25 µM | 0.000349 µM and < 0.0025 µM | 0.00278 µM and < 0.0025 µM | 0.00279 µM and 0.0025 µM | > 25 µM | 0.00125 µM and 0.0025 µM | > 25 µM | 0.00149 µM and 0.0025 µM | > 25 µM | 0.00424 µM | 
CCN(CC)CCOc1ccc(NC(=O)C(C(C)C)N2C(=O)/C(=C/c3ccc(Br)cc3)SC2=S)cc1 (centres undefined) | 4.44 µM | 14.7 µM | 5.24 µM | 18.8 µM | 3.19 µM | 11.3 µM | 1.75 µM | 3.23 µM | 1.71 µM | 3.3 µM | 2.1 µM | 4.41 µM | 2.27 µM | 5.85 µM | 7.82 µM | 21.1 µM | 1.97 µM | 4.02 µM | 2.17 µM | 5.09 µM
COc1ccc(Cl)cc1Nc1nc(C(F)(F)F)ccc1C(=O)N/N=C/c1ccccc1Cl | 3.94 µM | > 25.6 µM | 2.04 µM | 7.22 µM | 2.81 µM | > 28 µM | 1.64 µM | 12.8 µM | 1.75 µM | 9.54 µM | 2.61 µM | > 27.7 µM | 2.22 µM | > 23.2 µM | 7.32 µM | > 100 µM | 3.3 µM | > 100 µM | 0.442 µM | 4.61 µM
O=C(CS(=O)c1nc2ccccc2nc1-c1ccccc1)Nc1ccc(Cl)cc1 (centres undefined) | 25.7 µM | > 100 µM | 29.5 µM | > 100 µM | 21.7 µM | 55.2 µM | 17.5 µM | 33.6 µM | 19.1 µM | 46.7 µM | 18.1 µM | 41.4 µM | 24.9 µM | 88.2 µM | > 100 µM | > 100 µM | 26.7 µM | 88.2 µM | 27.8 µM | 82.7 µM
